From patent US9695155B2, “Herbicidal substituted pyrimidinyloxy benzene compounds” (E. I. DU PONT DE NEMOURS AND COMPANY, priority 2013, dated 2017)

Experiments:
large (Lg) crabgrass [1] = test: Test A preemergence; type: in vivo, Digitaria sanguinalis
Method in brief: (§1)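 Pre- and postemergence greenhouse screen. Soil: loam + sand. Spray carrier: solvent mixture, non-phytotoxic, with surfactant. Post timing at 1–2 leaves, height 2–10 cm. Readout: visual injury on a 0–100 scale roughly 10 days after application, untreated plants as reference.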

pigweed [2] = test: Test A preemergence; type: in vivo, Amaranthus retroflexus
Method in brief: as §1

velvetleaf [3] = test: Test A preemergence; type: in vivo, Abutilon theophrasti
Method in brief: as §1

large (Lg) crabgrass [4] = test: Test A postemergence; type: in vivo, Digitaria sanguinalis
Method in brief: as §1

morningglory = test: Test A postemergence; type: in vivo, Ipomoea spp.
Method in brief: as §1

pigweed [5] = test: Test A postemergence; type: in vivo, Amaranthus retroflexus
Method in brief: as §1

velvetleaf [6] = test: Test A postemergence; type: in vivo, Abutilon theophrasti
Method in brief: as §1

corn [7] = test: Test A postemergence; type: in vivo, Zea mays
Method in brief: as §1

Italian ryegrass = test: Test C postemergence; type: in vivo, Lolium multiflorum; conditions: for Plant response rating (0 to 100), Ryegrass, Italian: 16 g ai/ha, 0 is no effect, 100 is complete control; for Ryegrass, Italian plant response rating: 31 g ai/ha; for Ryegrass, Italian plant response rating / Plant response rating, Ryegrass, Italian: scale 0 to 100 (0 no effect, 100 complete control)
Method in brief: (§2)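 Seeds were sown in loam–sand blend and sprayed preemergence, while plants at 1- to 4-leaf stage (2–18 cm) in peat-based medium received postemergence sprays; test chemicals were formulated in a non-phytotoxic solvent with surfactant. After 13–15 days in a greenhouse, injury was rated visually against controls, 0 (no effect) to 100 (complete control).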

corn [8] = test: Test C postemergence; type: in vivo, Zea mays; conditions: for Plant response rating (0 to 100), Corn: 16 g ai/ha, 0 is no effect, 100 is complete control; for Corn plant response rating: 31 g ai/ha; for Corn plant response rating / Plant response rating, Corn: scale 0 to 100 (0 no effect, 100 complete control)
Method in brief: as §2

giant foxtail = test: Test C postemergence; type: in vivo, Setaria faberii; conditions: for Plant response rating (0 to 100), Foxtail, Giant: 16 g ai/ha, 0 is no effect, 100 is complete control; for Foxtail, Giant plant response rating: 31 g ai/ha; for Foxtail, Giant plant response rating / Plant response rating, Foxtail, Giant: scale 0 to 100 (0 no effect, 100 complete control)
Method in brief: as §2

johnsongrass = test: Test C postemergence; type: in vivo, Sorghum halepense; conditions: for Plant response rating (0 to 100), Johnsongrass: 16 g ai/ha, 0 is no effect, 100 is complete control; for Johnsongrass plant response rating: 31 g ai/ha; for Johnsongrass plant response rating / Plant response rating, Johnsongrass: scale 0 to 100 (0 no effect, 100 complete control)
Method in brief: as §2

pigweed [9] = test: Test C postemergence; type: in vivo, Amaranthus retroflexus; conditions: for Plant response rating (0 to 100), Pigweed: 16 g ai/ha, 0 is no effect, 100 is complete control; for Pigweed plant response rating: 31 g ai/ha; for Pigweed plant response rating / Plant response rating, Pigweed: scale 0 to 100 (0 no effect, 100 complete control)
Method in brief: as §2

soybean = test: Test C postemergence; type: in vivo, Glycine max; conditions: for Plant response rating (0 to 100), Soybean: 16 g ai/ha, 0 is no effect, 100 is complete control; for Soybean plant response rating: 31 g ai/ha; for Soybean plant response rating / Plant response rating, Soybean: scale 0 to 100 (0 no effect, 100 complete control)
Method in brief: as §2

barnyardgrass = test: Test C postemergence; type: in vivo, Echinochloa crus-galli; conditions: for Plant response rating (0 to 100), Barnyardgrass: 16 g ai/ha, 0 is no effect, 100 is complete control; for Barnyardgrass plant response rating: 31 g ai/ha, 13 to 15 days; for Barnyardgrass plant response rating / Plant response rating, Barnyardgrass: scale 0 to 100 (0 no effect, 100 complete control)
Method in brief: as §2

waterhemp = test: Test C postemergence; type: in vivo, Amaranthus rudis; conditions: for Plant response rating (0 to 100), Waterhemp: 16 g ai/ha, 0 is no effect, 100 is complete control; for Waterhemp plant response rating: 31 g ai/ha; for Waterhemp plant response rating / Plant response rating, Waterhemp: scale 0 to 100 (0 no effect, 100 complete control)
Method in brief: as §2

kochia = test: Test C postemergence; type: in vivo, Kochia scoparia; conditions: for Plant response rating (0 to 100), Kochia: 16 g ai/ha, 0 is no effect, 100 is complete control; for Kochia plant response rating: 31 g ai/ha; for Kochia plant response rating / Plant response rating, Kochia: scale 0 to 100 (0 no effect, 100 complete control)
Method in brief: as §2

wild oat = test: Test C postemergence; type: in vivo, Avena fatua; conditions: for Plant response rating (0 to 100), Oat, Wild: 16 g ai/ha, 0 is no effect, 100 is complete control; for Oat, Wild plant response rating: 31 g ai/ha; for Oat, Wild plant response rating / Plant response rating, Oat, Wild: scale 0 to 100 (0 no effect, 100 complete control)
Method in brief: as §2

[10] = 500 g ai/ha, 0 to 100 scale where 0 is no effect and 100 is complete control
[11] = 125 g ai/ha, 0 to 100 scale where 0 is no effect and 100 is complete control
[12] = postemergence, visual rating, 13 to 15 days
[13] = 125 g ai/ha, postemergence, visual rating
[14] = Postemergence, 62 g ai/ha, 13 to 15 days
[15] = 1000 g ai/ha, 0 to 100 scale, 0 no effect, 100 complete control, approx. 10 days
[16] = 1000 g ai/ha, 0 to 100 scale, 0 no effect, 100 complete control

Clc1cnc(Oc2cccc(Br)c2-n2cc(Cl)cn2)nc1 [Compound 221]
Crabgrass, Large plant response rating (0 to 100 scale) (large (Lg) crabgrass [1]; 125 g ai/ha): 100 | Crabgrass, Large plant response rating (large (Lg) crabgrass [1]; [10]): 100 | Pigweed plant response rating (0 to 100 scale) (pigweed [2]; 125 g ai/ha): 100 | Pigweed plant response rating (pigweed [2]; [10]): 100 | Velvetleaf plant response rating (0 to 100 scale) (velvetleaf [3]; 125 g ai/ha): 10 | Velvetleaf plant response rating (velvetleaf [3]; [10]): 70 | Crabgrass, Large plant response rating (large (Lg) crabgrass [4]; [11]): 60 | Plant response rating, Crabgrass, Large (large (Lg) crabgrass [4]; [10]): 100 | Morningglory plant response rating (morningglory; [11]): 90 | Plant response rating, Morningglory (morningglory; [10]): 100 | Pigweed plant response rating (pigweed [5]; [11]): 100 | Plant response rating, Pigweed (pigweed [5]; [10]): 100 | Velvetleaf plant response rating (velvetleaf [6]; [11]): 100 | Plant response rating, Velvetleaf (velvetleaf [6]; [10]): 100 | Corn plant response rating (corn [7]; [11]): 10 | Plant response rating, Corn (corn [7]; [10]): 50 | Plant response rating (0 to 100), Ryegrass, Italian (Italian ryegrass; postemergence): 0 | Ryegrass, Italian plant response rating (Italian ryegrass; [12]): 0 | Plant response rating, Ryegrass, Italian (Italian ryegrass; [13]): 5 | Plant response rating, Ryegrass, Italian (Italian ryegrass; [14]): 5 | Plant response rating (0 to 100), Corn (corn [8]; postemergence): 0 | Corn plant response rating (corn [8]; [12]): 5 | Plant response rating, Corn (corn [8]; [13]): 10 | Plant response rating, Corn (corn [8]; [14]): 10 | Plant response rating (0 to 100), Foxtail, Giant (giant foxtail; postemergence): 0 | Foxtail, Giant plant response rating (giant foxtail; [12]): 5 | Plant response rating, Foxtail, Giant (giant foxtail; [13]): 5 | Plant response rating, Foxtail, Giant (giant foxtail; [14]): 5 | Plant response rating (0 to 100), Johnsongrass (johnsongrass; postemergence): 5 | Johnsongrass plant response rating (johnsongrass; [12]): 5 | Plant response rating, Johnsongrass (johnsongrass; [13]): 20 | Plant response rating, Johnsongrass (johnsongrass; [14]): 5 | Plant response rating (0 to 100), Pigweed (pigweed [9]; postemergence): 60 | Pigweed plant response rating (pigweed [9]; [12]): 75 | Plant response rating, Pigweed (pigweed [9]; [13]): 85 | Plant response rating, Pigweed (pigweed [9]; [14]): 50 | Plant response rating (0 to 100), Soybean (soybean; postemergence): 30 | Soybean plant response rating (soybean; [12]): 55 | Plant response rating, Soybean (soybean; [13]): 80 | Plant response rating, Soybean (soybean; [14]): 65 | Plant response rating (0 to 100), Barnyardgrass (barnyardgrass; postemergence): 5 | Barnyardgrass plant response rating (barnyardgrass; postemergence, visual rating): 5 | Plant response rating, Barnyardgrass (barnyardgrass; [13]): 10 | Plant response rating, Barnyardgrass (barnyardgrass; Postemergence, 62 g ai/ha): 5 | Plant response rating (0 to 100), Waterhemp (waterhemp; postemergence): 65 | Waterhemp plant response rating (waterhemp; [12]): 70 | Plant response rating, Waterhemp (waterhemp; [13]): 80 | Plant response rating, Waterhemp (waterhemp; [14]): 80 | Plant response rating (0 to 100), Kochia (kochia; postemergence): 90 | Kochia plant response rating (kochia; [12]): 80 | Plant response rating, Kochia (kochia; [13]): 95 | Plant response rating, Kochia (kochia; [14]): 95 | Plant response rating (0 to 100), Oat, Wild (wild oat; postemergence): 5 | Oat, Wild plant response rating (wild oat; [12]): 5 | Plant response rating, Oat, Wild (wild oat; [13]): 30 | Plant response rating, Oat, Wild (wild oat; [14]): 10

Clc1cnc(Oc2ccccc2-n2cc(Br)nn2)nc1 [Compound 223]
Crabgrass, Large plant response rating (large (Lg) crabgrass [1]; [15]): 100 | Pigweed plant response rating (pigweed [2]; [15]): 100 | Velvetleaf plant response rating (velvetleaf [3]; [15]): 100 | Plant response rating, Crabgrass, Large (large (Lg) crabgrass [4]; [16]): 100 | Plant response rating, Morningglory (morningglory; [16]): 100 | Plant response rating, Pigweed (pigweed [5]; [16]): 100 | Plant response rating, Velvetleaf (velvetleaf [6]; [16]): 100 | Plant response rating, Corn (corn [7]; [16]): 60 | Plant response rating (0 to 100), Ryegrass, Italian (Italian ryegrass; postemergence): 0 | Ryegrass, Italian plant response rating (Italian ryegrass; [12]): 0 | Plant response rating, Ryegrass, Italian (Italian ryegrass; [13]): 5 | Plant response rating, Ryegrass, Italian (Italian ryegrass; [14]): 0 | Plant response rating (0 to 100), Corn (corn [8]; postemergence): 5 | Corn plant response rating (corn [8]; [12]): 5 | Plant response rating, Corn (corn [8]; [13]): 5 | Plant response rating, Corn (corn [8]; [14]): 5 | Plant response rating (0 to 100), Foxtail, Giant (giant foxtail; postemergence): 5 | Foxtail, Giant plant response rating (giant foxtail; [12]): 5 | Plant response rating, Foxtail, Giant (giant foxtail; [13]): 5 | Plant response rating, Foxtail, Giant (giant foxtail; [14]): 5 | Plant response rating (0 to 100), Johnsongrass (johnsongrass; postemergence): 0 | Johnsongrass plant response rating (johnsongrass; [12]): 0 | Plant response rating, Johnsongrass (johnsongrass; [13]): 5 | Plant response rating, Johnsongrass (johnsongrass; [14]): 0 | Plant response rating (0 to 100), Pigweed (pigweed [9]; postemergence): 70 | Pigweed plant response rating (pigweed [9]; [12]): 70 | Plant response rating, Pigweed (pigweed [9]; [13]): 90 | Plant response rating, Pigweed (pigweed [9]; [14]): 80 | Plant response rating (0 to 100), Soybean (soybean; postemergence): 60 | Soybean plant response rating (soybean; [12]): 65 | Plant response rating, Soybean (soybean; [13]): 95 | Plant response rating, Soybean (soybean; [14]): 85 | Plant response rating (0 to 100), Barnyardgrass (barnyardgrass; postemergence): 0 | Barnyardgrass plant response rating (barnyardgrass; postemergence, visual rating): 0 | Plant response rating, Barnyardgrass (barnyardgrass; [13]): 5 | Plant response rating, Barnyardgrass (barnyardgrass; Postemergence, 62 g ai/ha): 5 | Plant response rating (0 to 100), Waterhemp (waterhemp; postemergence): 70 | Waterhemp plant response rating (waterhemp; [12]): 60 | Plant response rating, Waterhemp (waterhemp; [13]): 95 | Plant response rating, Waterhemp (waterhemp; [14]): 85 | Plant response rating (0 to 100), Kochia (kochia; postemergence): 70 | Kochia plant response rating (kochia; [12]): 85 | Plant response rating, Kochia (kochia; [13]): 90 | Plant response rating, Kochia (kochia; [14]): 80 | Plant response rating (0 to 100), Oat, Wild (wild oat; postemergence): 0 | Oat, Wild plant response rating (wild oat; [12]): 0 | Plant response rating, Oat, Wild (wild oat; [13]): 5 | Plant response rating, Oat, Wild (wild oat; [14]): 0
